Results: patent US12569459B2, “Compositions and methods for treating pulmonary edema or lung inflammation” (priority 2020, dated 2026)

Experiments:
Nrf2 = test: Western blot of Nrf2 protein in RLE-6TN cells under hyperoxia; assay type: cell-based, rat; details: 24 hours hyperoxia, T3 10^−6 M
From the text: FIG. 9. […] The cells were then collected for Western Blotting analysis. (A) Cellular total protein of Nrf2. (B) Nuclear Nrf2.
FIG. 12. T3-induced increase in Nrf2 and HO-1 protein via PI3K in hyperoxia. (A) Western Blot and densitometry data for total Nrf2. (B) Western Blot and densitometry data for cytoplasmic Nrf2. (C) Western Blot and densitometry data for nuclear Nrf2.
At the end of the hyperoxia exposure period, the viable cells were counted by trypan blue dye exclusion.
Nuclei were extracted with NE-PER nuclear and cytoplasmic extraction reagents kit (Thermo Fisher Scientific, Inc., Waltham, MA) following the manufacturer's instruction.
The cells were lysed in lysis buffer containing 20 mM Tris HCl (pH 7.5), 150 mM NaCl, 1 mM EDTA, 1 mM EGTA, 1% (vol/vol) Triton X-100 with protease inhibitors (1 mM PMSF, 2 μg/ml pepstatin, and 10 μg/ml each of aprotinin and leupeptin), and phosphatase inhibitors (2.5 mM sodium pyrophosphate, 1 mM β-glycerophosphate, and 1 mM Na3VO4). The lysate was drawn 10 times through a 25-gauge needle on ice for further lysis and then was centrifuged at 13,000 rpm for 15 minutes at 4° C. The supernatant was collected, and the protein concentrations were determined by use of the BCA protein assay kit (Sigma-Aldrich, St. Louis, MO). Immediately after this step, equal amounts of protein were subjected to Western blotting analysis.

[1] = system: Sprague Dawley rats exposed to normobaric hyperoxia; test: Hyperoxia-induced lung injury (HALI) model with intraperitoneal T3
in vivo = test: in vivo; set-up: species or system Sprague-Dawley rats; details: Sprague-Dawley, rat; for Cmax_D / Vz_F_obs / AUC(0-inf): inhaled or intranasal; for AUC(0-inf): 2.73 ug
Experimental: Sixty animals (plus two spare animals/sex/group) were anesthetized and dosed via intratracheal instillation of test or control materials for five consecutive days. On the day after the last dose a terminal blood collection was performed for clinical pathology, after which animals were euthanized and a gross examination of all organs was performed by a board-certified veterinary pathologist. Select tissues were collected for histopathology. […] Terminal blood collection was performed at two designated time points per animal up to 24 hours after administration for toxicokinetic evaluation. TK animals were euthanized without further evaluation after the final blood collection. All animals were acclimated for a minimum of seven days prior to the dosing procedure. Animals underwent baseline observations and examinations prior to the initiation of the study, and clinical observations and body weight monitoring were performed throughout the in-life portion of the study. All animals received the same dose volume (0.3 mL) of either test or control materials. This maximum feasible dose (MFD) is constrained by the maximum volume that can be safely and reproducibly (over five days) instilled into lungs of rats weighing 250 g to 350 g, which was determined in preliminary toxicology studies to be 0.3 mL. Actual doses delivered are reported as both μg/kg body weight and μg/gm wet lung weight. The toxicity phase animals were 72-135 days of age at the time of initial dosing. Males weighed between 256.52 g and 307.50 g with a mean±standard deviation of 286.74±11.77 g, and females weighed between 250.46 g and 299.01 g with a mean±standard deviation of 260.64±10.34 g. The TK phase animals were 68-144 days of age at the time of initial dosing. Males weighed between 261.23 g and 316.19 g; females weighed between 250.06 g and 280.32 g.
For toxicokinetic experiments, rats were anesthetized with combination of ketamine 40 mg/kg to 200 mg/kg and xylazine 1 mg/kg to 7 mg/kg, intraperitoneally (IP), to effect for dosing procedures, and dosed intratracheally with liothyronine sodium injection as previously described. Depending on the duration of time between dosing and the first or second blood collection time points, animals either had blood collected while still anesthetized under the injectable anesthetics, or if recovered, they were anesthetized with Isoflurane 2-5% and oxygen 1-1.5 L/minute by inhalation anesthesia via nose cone, as needed, to maintain adequate anesthesia depth (assessed by toe pinch). Topical proparicaine anesthetic ophthalmic solution was applied to each eye prior to performing the first blood collection and allowed time to take effect. Collection of serum samples for TK analysis was as described for serum chemistry samples above, and samples were stored at ≤−70° C. until assayed. Animals were euthanized with EUTHASOL (Virbac Corp., Fort Worth, TX)≥86 mg/kg IP to effect following the final blood collection.
For assessment of serum T3 levels samples were sent to the Fairview University of Minnesota Medical Center East Bank Diagnostic Laboratory for analysis, a clinical laboratory certified by CLIA and CAP. Prior to sending serum samples to the analytical lab each sample was diluted 1:4 or 1:8 in normal (0.9%) saline. […] Samples were analyzed by a chemiluminescence assay for total triiodothyronine (T3).
Toxicokinetic parameters were estimated using Phoenix 64 WinNonlin pharmacokinetic software version 7.0. (Pharsight Corp., Mountain View, CA). A non-compartmental (NCA) approach consistent with the route of administration was used for parameter estimation. […] Whenever possible, mean concentrations were derived from three animals/gender/time point. Parameters were estimated using sampling times relative to the start of each dose administration. The raw data was converted to ng/ml of serum by dividing the […] values by 100 and then multiplying by the dilution factor for that sample, either 4 or 8. […]

[2] = Phase I/II trial of instilled T3: serum thyroid hormone levels; assay type: in vivo, human
From the text: Ten milliliters (mls) of reformulated, pH-adjusted commercial intravenous T3 solution (Par Pharmaceutical, Navi Mumbai, India; and XGen Pharmaceuticals DJB, Inc., Horseheads, NY) was instilled directly into the airspaces via a suction catheter in the endotracheal tube of intubated patients with ARDS. […] The study was approved by the Essentia IRB (Duluth, MN) and listed on ClinicalTrials.gov (NCT04115514).
Subsequent doses were given on days 4, 6, and 7. […] Despite Klebsiella aerogenes positive sputum culture, they were extubated on ventilator day 11. After discharge from the ICU, they had some confusion and delirium.

[3] = system: rat lung mucosa and airspaces; details: in vivo
Experimental: (§1) Using aseptic technique, vials of liothyronine sodium were opened and the entire contents were transferred into sterile 1.5 mL Eppendorf tubes. 80-90 μL of 1.0 N HCl was added to the tube and gently vortexed, and the pH was measured using pH test strips (pH 4.5 to 10.0, Ricca Chemical Co., Arlington, TX). Additional HCl was titrated in gradually, as needed, until the pH was in the desired range. […] This solution was stored at 4° C. and used for up to 26 hours after pH adjustment procedure.

[4] = system: rat lung mucosa and airspaces; test: Preliminary studies: intratracheal instillation of liothyronine sodium without pH adjustment; details: pH of >10.0 as supplied commercially
Experimental: as §1

N[C@@H](Cc1cc(I)c(Oc2ccc(O)c(I)c2)c(I)c1)C(=O)O [T3, triiodothyronine]
Total cellular and nuclear Nrf2 protein (Nrf2): significantly increased both total cellular and nuclear Nrf-2 protein expression
BALF protein concentration ([1]; 48-hour and 60-hour time points of hyperoxia, vs hyperoxia alone): attenuated significantly the hyperoxic increases in the BALF protein concentration
Serum total T3 ([1]; 95% oxygen 60 hours, intraperitoneal T3 supplementation (50 μg/kg bodyweight/24 hours)): augmented serum total T3
MPO-positive cells in the lungs (immunostaining) ([1]; 95% oxygen 60 hours, vs hyperoxic lungs without T3): fewer MPO-positive cells
BALF cell numbers ([1]; 48 hours and 60 hours of 95% oxygen, vs hyperoxia alone): significantly reduced the BALF cell numbers
Lung morphology (histopathology) ([1]; 60 hours hyperoxia, systemic T3 supplementation): persistence of virtually normal lung morphology
Lung MPO activity ([1]; 60 hours of hyperoxia): significantly reduced the hyperoxia-induced MPO activity
Cl_F_obs (in vivo; female): 30.10 mL/h
HL_Lambda_z (in vivo; female): 2.85 h
Cmax_D (in vivo; female): 6.12 ng/mL/µg
Vz_F_obs (in vivo; female): 123.60 mL
AUC(0-inf) (in vivo; female): 89.7 ng·h/mL
Cl_F_obs (in vivo; male): 74.29 mL/h
HL_Lambda_z (in vivo; male): 3.17 h
Cmax_D (in vivo; male): 2.44 ng/mL/µg
Vz_F_obs (in vivo; male): 339.44 mL
AUC(0-inf) (in vivo; male): 36.3 ng·h/mL
Serum free T3 levels ([2]; Patient 1, four 50-μg daily instilled doses, all days of treatment): 1.9 to 3.4 pg/mL
Serum free T3 levels ([2]; Patient 2, escalating daily instilled doses 5, 10, 25, 50 μg): <1.5 to 2.2 pg/mL
Toxicity of instillation into airway and lung [3]: extremely toxic to rat lung mucosa and airspaces
Tolerability of intratracheal instillation [4]: do not tolerate
